For 35 molecules, IC50 results are on record in patent publication US8278345B2, “Inhibitors of glutaminyl cyclase” (Probiodrug AG, priority 2006, dated 2012).

Where two headings read alike, the source gives them in different places.

In general, IC50 refers to the point on the concentration scale where inhibition reaches its midpoint.

This assay deals with hQC (Homo sapiens, UniProt Q16769). Description: Inhibitor assay for glutaminyl cyclase activity (fluorometric, H-Gln-βNA / H-Gln-AMC). It counts as biochemical. Put shortly:
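Coupled fluorometric assay at 30 °C with pyroglutamyl aminopeptidase, in Tris/HCl pH 8.0 with EDTA, substrate H-Gln-βNA (0.2 mM; ex/em 320/410 nm) or H-Gln-AMC (ex/em 380/460 nm), initiated by QC. Screening: 4 mM inhibitor, substrate at 1 KM; Ki from progress curves fitted to competitive inhibition.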

Chain of hQC (Q16769 29-361): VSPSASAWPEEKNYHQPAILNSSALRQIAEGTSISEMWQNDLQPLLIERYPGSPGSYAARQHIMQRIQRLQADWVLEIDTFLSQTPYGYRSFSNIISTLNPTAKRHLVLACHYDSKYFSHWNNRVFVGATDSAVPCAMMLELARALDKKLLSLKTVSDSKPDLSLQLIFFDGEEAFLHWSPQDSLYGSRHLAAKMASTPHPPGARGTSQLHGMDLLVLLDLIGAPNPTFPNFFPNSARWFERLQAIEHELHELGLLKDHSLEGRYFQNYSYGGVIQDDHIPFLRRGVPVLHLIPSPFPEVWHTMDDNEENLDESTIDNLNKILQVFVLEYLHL

As to `O=C(C1=C(O)C(=O)N(c2ccc3[nH]cnc3c2)C1c1ccc(CO)o1)C1CC1` (stereo not drawn) [Compound 418, 1-(1H-Benzoimidazol-5-yl)-4-cyclopropanecarbonyl-3-hydroxy-5-(5-hydroxymethyl-furan-2-yl)-1,5-dihydro-pyrrol-2-one], the IC50 (read-out: IC50) came to 310 nM.

`CC(C)(C)C(=O)C1=C(O)C(=O)N(c2ccc3[nH]cnc3c2)C1c1nccs1` (stereo not drawn) [Compound 402, 1-(1H-Benzoimidazol-5-yl)-4-(2,2-dimethyl-propionyl)-3-hydroxy-5-thiazol-2-yl-1,5-dihydro-pyrrol-2-one]: the IC50 (read-out: IC50) worked out at 6340 nM.

On to `Cc1ccc(O)c(C2C(c3ccc(O)cc3)=C(O)C(=O)N2c2ccc3[nH]cnc3c2)c1` (stereo not drawn) [Compound 284, 1-(1H-Benzoimidazol-5-yl)-3-hydroxy-5-(2-hydroxy-5-methyl-phenyl)-4-(4-hydroxy-phenyl)-1,5-dihydro-pyrrol-2-one], for which the IC50 (read-out: IC50) came out at 7150 nM.

`O=C1C(O)=C(c2ccccc2)C(c2ccccc2O)N1CCCn1ccnc1` (stereo not drawn) [Compound 87, 3-Hydroxy-5-(2-hydroxy-phenyl)-1-(3-imidazol-1-yl-propyl)-4-phenyl-1,5-dihydro-pyrrol-2-one]: the IC50 (read-out: IC50) is 3100 nM.

Take `CC1=C(O)C(=O)N(CCCn2ccnc2)C1c1cc(Cl)cc(Cl)c1O` (stereo not drawn) [Compound 20, 5-(3,5-Dichloro-2-hydroxy-phenyl)-3-hydroxy-1-(3-imidazol-1-yl-propyl)-4-methyl-1,5-dihydro-pyrrol-2-one]: the IC50 (read-out: IC50) is 400 nM.

`O=C1C(O)=C(c2ccc(O)cc2)C(Cc2ccccc2)N1CCCn1ccnc1` (stereo not drawn) [Compound 169, 5-Benzyl-3-hydroxy-4-(4-hydroxy-phenyl)-1-(3-imidazol-1-yl-propyl)-1,5-dihydro-pyrrol-2-one]: the concentration for half-maximal inhibition (IC50) (read-out: IC50) came to 40 nM.

As for `CCCC(=O)C1=C(O)C(=O)N(c2ccc3[nH]cnc3c2)C1c1ccco1` (stereo not drawn) [Compound 353, 1-(1H-Benzoimidazol-5-yl)-4-butyryl-5-furan-2-yl-3-hydroxy-1,5-dihydro-pyrrol-2-one], where the note is “read-out: IC50”, the IC50 is 2740 nM.

For `O=C(O)CC1=C(O)C(=O)N(c2ccc3[nH]cnc3c2)C1c1c(F)ccc(Cl)c1F` (stereo not drawn) [Compound 358, [1-(1H-Benzoimidazol-5-yl)-2-(3-chloro-2,6-difluoro-phenyl)-4-hydroxy-5-oxo-2,5-dihydro-1H-pyrrol-3-yl]-acetic acid], under “read-out: IC50”, the IC50 stood at 4540 nM.

Take `Cc1cccc(C2C(C(=O)C3CCCCC3)=C(O)C(=O)N2c2ccc3[nH]cnc3c2)n1` (stereo not drawn) [Compound 381, 1-(1H-Benzoimidazol-5-yl)-4-cyclohexanecarbonyl-3-hydroxy-5-(6-methyl-pyridin-2-yl)-1,5-dihydro-pyrrol-2-one]: the IC50 (read-out: IC50) was 1750 nM.

`CCCC(=O)C1=C(O)C(=O)N(c2ccc3[nH]cnc3c2)C1C1CCOC1` (stereo not drawn) [Compound 425, 1-(1H-Benzoimidazol-5-yl)-4-butyryl-3-hydroxy-5-(tetrahydro-furan-3-yl)-1,5-dihydro-pyrrol-2-one]: the concentration for half-maximal inhibition (IC50) (read-out: IC50) turned out to be 1840 nM.

As to `Cc1ccc2c(C3C(c4ccc(O)cc4)=C(O)C(=O)N3CCCn3ccnc3)c[nH]c2c1` (stereo not drawn) [Compound 165, 3-Hydroxy-4-(4-hydroxy-phenyl)-1-(3-imidazol-1-yl-propyl)-5-(6-methyl-1H-indol-3-yl)-1,5-dihydro-pyrrol-2-one], the IC50 (read-out: IC50) stood at 40 nM.

`O=C1C(O)=C(c2cccc(O)c2)C(C2CC2)N1CCCn1ccnc1` (stereo not drawn) [Compound 19, 5-Cyclopropyl-3-hydroxy-4-(3-hydroxy-phenyl)-1-(3-imidazol-1-yl-propyl)-1,5-dihydro-pyrrol-2-one]: the 50% inhibitory concentration (IC50) (read-out: IC50) was 1300 nM.

Turning to `CCCCC1C(c2ccccc2)=C(O)C(=O)N1CCCn1ccnc1` (stereo not drawn) [Compound 107, 5-Butyl-3-hydroxy-1-(3-imidazol-1-yl-propyl)-4-phenyl-1,5-dihydro-pyrrol-2-one], the IC50 (compound from preparative synthesis, purified, read-out: IC50 hQC) was 524 nM and the IC50 (read-out: IC50) amounted to 40 nM.

For `CCCCCC1=C(O)C(=O)N(CCCn2ccnc2)C1c1ccc(C)cc1` (stereo not drawn) [Compound 184, 3-Hydroxy-1-(3-imidazol-1-yl-propyl)-4-pentyl-5-p-tolyl-1,5-dihydro-pyrrol-2-one], under “read-out: IC50”, the IC50 came out at 40 nM.

On to `CC(=O)C1=C(O)C(=O)N(c2ccc3[nH]cnc3c2)C1c1ccsc1` (stereo not drawn) [Compound 367, 4-Acetyl-1-(1H-benzoimidazol-5-yl)-3-hydroxy-5-thiophen-3-yl-1,5-dihydro-pyrrol-2-one], for which the IC50 (read-out: IC50) turned out to be 760 nM.

Consider `CCCCCC1=C(O)C(=O)N(CCCn2ccnc2)C1C1CC1` (stereo not drawn) [Compound 212, 5-Cyclopropyl-3-hydroxy-1-(3-imidazol-1-yl-propyl)-4-pentyl-1,5-dihydro-pyrrol-2-one], for which, where the note is “read-out: IC50”, the concentration for half-maximal inhibition (IC50) stood at 400 nM.

With `O=C1C(O)=C(c2c[nH]c3ccccc23)C(c2ccc(CO)o2)N1CCCn1ccnc1` (stereo not drawn) [Compound 126, 3-Hydroxy-5-(5-hydroxymethyl-furan-2-yl)-1-(3-imidazol-1-yl-propyl)-4-(1H-indol-3-yl)-1,5-dihydro-pyrrol-2-one], the concentration for half-maximal inhibition (IC50) (read-out: IC50) stood at 400 nM.

Consider `O=C(O)c1ccc(C2C(c3ccc(O)cc3)=C(O)C(=O)N2c2ccc3[nH]cnc3c2)o1` (stereo not drawn) [Compound 389, 5-[1-(1H-Benzoimidazol-5-yl)-4-hydroxy-3-(4-hydroxy-phenyl)-5-oxo-2,5-dihydro-1H-pyrrol-2-yl]-furan-2-carboxylic acid], for which, under “read-out: IC50”, the IC50 was determined as 220 nM.

As for `CCCC(=O)C1=C(O)C(=O)N(c2ccc3[nH]cnc3c2)C1c1c[nH]c2ccccc12` (stereo not drawn) [Compound 268, 1-(1H-Benzoimidazol-5-yl)-4-butyryl-3-hydroxy-5-(1H-indol-3-yl)-1,5-dihydro-pyrrol-2-one], the IC50 (read-out: IC50) worked out at 8590 nM.

Take `CC(C)/C=C/C1C(c2cccc(O)c2)=C(O)C(=O)N1CCCn1ccnc1` (stereo not drawn) [Compound 10, 3-Hydroxy-4-(3-hydroxy-phenyl)-1-(3-imidazol-1-yl-propyl)-5-(3-methyl-but-1-enyl)-1,5-dihydro-pyrrol-2-one]: the IC50 (read-out: IC50) came out at 5800 nM.

Take `O=C1C(O)=C(c2ccc(O)cc2)C(CO)N1CCCn1ccnc1` (stereo not drawn) [Compound 174, 3-Hydroxy-5-hydroxymethyl-4-(4-hydroxy-phenyl)-1-(3-imidazol-1-yl-propyl)-1,5-dihydro-pyrrol-2-one]: the half-inhibitory concentration (IC50) (read-out: IC50) came to 400 nM.

Regarding `CCCC(=O)C1=C(O)C(=O)N(c2ccc3[nH]cnc3c2)C1CCC(=O)O` (stereo not drawn) [Compound 324, 3-[1-(1H-Benzoimidazol-5-yl)-3-butyryl-4-hydroxy-5-oxo-2,5-dihydro-1H-pyrrol-2-yl]-propionic acid], the IC50 (read-out: IC50) came to 6610 nM.

On to `CCC1=C(O)C(=O)N(CCCn2ccnc2)C1c1c[nH]c2cc(C)ccc12` (stereo not drawn) [Compound 239, 4-Ethyl-3-hydroxy-1-(3-imidazol-1-yl-propyl)-5-(6-methyl-1H-indol-3-yl)-1,5-dihydro-pyrrol-2-one], for which the half-maximal inhibitory concentration (IC50) (read-out: IC50) is 400 nM.

Consider `Cc1cccc(C2C(c3ccc(O)cc3)=C(O)C(=O)N2c2ccc3[nH]cnc3c2)c1` (stereo not drawn) [Compound 429, 1-(1H-Benzoimidazol-5-yl)-3-hydroxy-4-(4-hydroxy-phenyl)-5-m-tolyl-1,5-dihydro-pyrrol-2-one], for which, under “read-out: IC50”, the IC50 is 1390 nM.

With `Cc1ccc(C2C(c3ccccc3)=C(O)C(=O)N2CCCn2ccnc2)cc1C` (stereo not drawn) [Compound 88, 5-(3,4-Dimethyl-phenyl)-3-hydroxy-1-(3-imidazol-1-yl-propyl)-4-phenyl-1,5-dihydro-pyrrol-2-one], for the setting “read-out: IC50”, the IC50 was determined as 1300 nM.

With `CC(C)C1=C(O)C(=O)N(c2ccc3[nH]cnc3c2)C1c1ccsc1` (stereo not drawn) [Compound 348, 1-(1H-Benzoimidazol-5-yl)-3-hydroxy-4-isopropyl-5-thiophen-3-yl-1,5-dihydro-pyrrol-2-one], the half-inhibitory concentration (IC50) (read-out: IC50) was determined as 4090 nM.

For `O=C1C(O)=C(c2ccccc2)C(c2c[nH]c3ccccc23)N1CCCn1ccnc1` (stereo not drawn) [Compound 97, 3-Hydroxy-1-(3-imidazol-1-yl-propyl)-5-(1H-indol-3-yl)-4-phenyl-1,5-dihydro-pyrrol-2-one], the half-inhibitory concentration (IC50) (read-out: IC50) was 40 nM.

Take `CC1=C(O)C(=O)N(c2ccc3[nH]cnc3c2)C1c1coc2ccccc2c1=O` (stereo not drawn) [Compound 356, 1-(1H-Benzoimidazol-5-yl)-3-hydroxy-4-methyl-5-(4-oxo-4H-chromen-3-yl)-1,5-dihydro-pyrrol-2-one]: the 50% inhibitory concentration (IC50) (read-out: IC50) worked out at 3910 nM.

As to `O=C1C(O)=C(c2ccccc2)C(c2ccc(Cl)c(C(F)(F)F)c2)N1c1ccc2[nH]cnc2c1` (stereo not drawn) [Compound 305, 1-(1H-Benzoimidazol-5-yl)-5-(4-chloro-3-trifluoromethyl-phenyl)-3-hydroxy-4-phenyl-1,5-dihydro-pyrrol-2-one], the IC50 (read-out: IC50) was found to be 1750 nM.

As to `CC(=O)C1=C(O)C(=O)N(c2ccc3[nH]cnc3c2)C1c1cc(F)cc(F)c1F` (stereo not drawn) [Compound 261, 4-Acetyl-1-(1H-benzoimidazol-5-yl)-3-hydroxy-5-(2,3,5-trifluoro-phenyl)-1,5-dihydro-pyrrol-2-one], the IC50 (read-out: IC50) came to 310 nM.

On to `CCCCCC(=O)C1=C(O)C(=O)N(c2ccc3[nH]cnc3c2)C1C1CCOC1` (stereo not drawn) [Compound 274, 1-(1H-Benzoimidazol-5-yl)-4-hexanoyl-3-hydroxy-5-(tetrahydro-furan-3-yl)-1,5-dihydro-pyrrol-2-one], for which, for the setting “read-out: IC50”, the concentration for half-maximal inhibition (IC50) is 2470 nM.

Take `CC1=C(O)C(=O)N(c2ccc3[nH]cnc3c2)C1c1cccc(C)c1` (stereo not drawn) [Compound 416, 1-(1H-Benzoimidazol-5-yl)-3-hydroxy-4-methyl-5-m-tolyl-1,5-dihydro-pyrrol-2-one]: the IC50 (read-out: IC50) turned out to be 9940 nM.

In the case of `CCC1=C(O)C(=O)N(CCCn2ccnc2)C1c1cccs1` (stereo not drawn) [Compound 245, 4-Ethyl-3-hydroxy-1-(3-imidazol-1-yl-propyl)-5-thiophen-2-yl-1,5-dihydro-pyrrol-2-one], under “read-out: IC50”, the concentration for half-maximal inhibition (IC50) worked out at 40 nM.

Consider `CC(C)C1=C(O)C(=O)N(CCCn2ccnc2)C1c1cccc(Cl)c1` (stereo not drawn) [Compound 73, 5-(3-Chloro-phenyl)-3-hydroxy-1-(3-imidazol-1-yl-propyl)-4-isopropyl-1,5-dihydro-pyrrol-2-one], for which the IC50 (read-out: IC50) amounted to 3100 nM.

`O=C(O)c1ccc(C2C(C(=O)C3CCCCC3)=C(O)C(=O)N2c2ccc3[nH]cnc3c2)o1` (stereo not drawn) [Compound 374, 5-[1-(1H-Benzoimidazol-5-yl)-3-cyclohexanecarbonyl-4-hydroxy-5-oxo-2,5-dihydro-1H-pyrrol-2-yl]-furan-2-carboxylic acid]: the IC50 (read-out: IC50) was 760 nM.
